These results are taken from publication PMC11484510, “Antibacterial activity of structurally diverse natural prenylated isobavachalcone derivatives” (RSC Advances, 2024).

Counter-ions that a name gives are not always drawn. Like-named read-outs stand apart in the source and are kept apart here. Some results are limits rather than exact numbers.

The test system of one test is S. aureus. As to the kind of experiment: Combinational study (checkerboard microdilution) with standard drugs. In kind it is cell-based. How it is done:
The Fractional Inhibitory Concentration Index (FICI) was calculated for each test compound and reference drug to find the combinational effect.
In a 96-well flat bottom plate, the reference drug with 4× MIC was serially diluted horizontally. The test compounds with 4× MIC were serially diluted two-fold outside the plate in 1.5 mL Eppendorf's using Mueller Hinton Broth (MHB). These two serially diluted compounds were combined to create drug-compound combinations in the plate. The reference drug (horizontally) and tested compounds (vertically) alone were serially diluted for MIC determination. 100 μL of the standardized bacterial inoculum with a turbidity equivalent to a 0.5 McFarland standard were diluted 1 : 100 in Mueller Hinton Broth and inoculated in the plates. The plates were incubated for 24 hours at 37 °C. After incubation, 10 μL of freshly prepared Alamar blue (Himedia) was added to each well of the plate, and the plates were further incubated at 37 °C for 30 minutes. After incubation, the plates were visually observed. […] The FICI was calculated using the formula FICI = FIC of compound + FIC of drug. The calculation followed is FICI (CA/(MICA)) + (CB/(MICB)), where CA is the MIC of the compound in combination, CB is the MIC of the drug in combination, and MICA and MICB are the MIC values of individual compounds and drugs, respectively. The range selection followed the interpretation criteria. The FICI range of 0.5 to 4 indicates indifference, ≤ or =0.5 indicates synergy and >4 indicates antagonism.[57]
(In general: Broth dilution looks for growth in wells or tubes with falling amounts of substance.)

Another test has as its system MRSA ATCC 15187. Put plainly: MIC, broth microdilution (CLSI), Alamar blue. In kind it is cell-based, Methicillin-resistant S. aureus. To be noted: MRSA ATCC 15187, 24 hours at 37 °C, read-out: Minimum inhibitory concentration (MIC) MRSA. An excerpt: (§1) The bacterial strains S. aureus ATCC 29213, MRSA ATCC 15187, E. coli ATCC 25922, and P. aeruginosa ATCC 27853 were obtained from ATCC (American Type Culture Collection). Cation-adjusted Mueller–Hinton broth (MHB; Becton–Dickinson, Cockeysville, MD) was used to determine the minimum inhibitory concentration (MIC). Mueller–Hinton agar (MHA; Becton–Dickinson) was used for minimum bactericidal concentration (MBC) studies. Alamar blue (Himedia) was used to detect the MIC value.
(§2) The antibacterial activity of the compounds against S. aureus ATCC 29213, MRSA ATCC 15187, E. coli ATCC 25922, and P. aeruginosa ATCC 27853 was determined through a broth microdilution method according to the guidelines of the Clinical and Laboratory Standards Institute (CLSI).[50] […] Growth control and media control were employed along with 2% DMSO as vehicle control.
(§3) In a 96-well flat bottom plate, the test compounds were two-fold serially diluted in Mueller Hinton Broth (MHB). The final concentrations of the compounds ranged from 100 to 0.08 μM. 100 μL of standardized bacterial inoculum with turbidity equivalent to 0.5 McFarland standard (1.5 × 10^8 CFU mL^−1) was diluted 1 : 100 (1.5 × 10^6 CFU mL^−1) in Mueller Hinton Broth and inoculated in the plates.[51] The plates were incubated for 24 hours at 37 °C. After incubation, 10 μL of freshly prepared Alamar blue (Himedia) was added to each well of the plate, and plates were further incubated at 37 °C for 30 minutes. After incubation, the fluorescence was measured at excitation/emission of 540–570/580–610 nm. The percentage inhibition and viability were calculated for the controls, and the Gompertz curve was utilized to estimate the minimum inhibitory concentration.

In a further test the test system is S. aureus ATCC 29213. Put plainly: MIC, broth microdilution (CLSI), Alamar blue. The format is cell-based. To be noted: S. aureus ATCC 29213, 24 hours at 37 °C, read-out: Minimum inhibitory concentration (MIC) S. aureus.
Excerpt: as §1, §2, §3

The test system of a further test is P. aeruginosa ATCC 27853. As to the kind of experiment: MIC, broth microdilution (CLSI), Alamar blue. The format is cell-based. To be noted: P. aeruginosa ATCC 27853, 24 hours at 37 °C, read-out: Minimum inhibitory concentration (MIC) P. aeruginosa.
Excerpt: as §1, §2, §3

For a further test, the system named is E. coli ATCC 25922. Put plainly: MIC, broth microdilution (CLSI), Alamar blue. In kind it is cell-based. To be noted: E. coli ATCC 25922, 24 hours at 37 °C, read-out: Minimum inhibitory concentration (MIC) E. coli.
Excerpt: as §1, §2, §3

[1] abbreviates: Staphylococcus aureus, ATCC29213.
The mark [2] stands for this setting: Pseudomonas aeruginosa, ATCC27853, 24 h.

Consider `O=C(O)c1cn(C2CC2)c2cc(N3CCNCC3)c(F)cc2c1=O` [Ciprofloxacin, ciprofloxacin hydrochloride monohydrate, reference compound], for which the “MIC combination (drug)” value in the test on S. aureus (MIC of ciprofloxacin in combination with IBC, S. aureus) came to 0.156 µM; in the test with S. aureus (MIC of ciprofloxacin in combination with IBC-2, S. aureus) it was 0.3125 µM; in the test with S. aureus (MIC of ciprofloxacin in combination with IBC-3, S. aureus), 0.3125 µM.

For `COc1ccc(/C=C/C(=O)c2ccc(OC)c(CC=C(C)C)c2OC)cc1` [IBC-4, (E)-1-(2,4-dimethoxy-3-(3-methylbut-2-en-1-yl)phenyl)-3-(4-methoxyphenyl)prop-2-en-1-one], the MIC in the test on MRSA ATCC 15187, with MRSA ATCC 15187 (Staphylococcus aureus), in the test with S. aureus ATCC 29213, with S. aureus ATCC 29213 (setting [1]), in the test with P. aeruginosa ATCC 27853 and in the test on P. aeruginosa ATCC 27853 (setting [2]) was greater than 100 µM each time. In addition, the MIC with E. coli ATCC 25922 is greater than 100 µM; in the test on E. coli ATCC 25922 (Escherichia coli, ATCC25922) it was greater than 100 µM.

Consider `CC(C)=CCc1c(OCC(=O)N2CCOCC2)ccc(C(=O)/C=C/c2ccc(OCC(=O)N3CCOCC3)cc2)c1OCC(=O)N1CCOCC1` [IBC-5, (E)-2,2′-((2-(3-methylbut-2-en-1-yl)-4-(3-(4-(2-morpholino-2-oxoethoxy)phenyl)acryloyl)-1,3-phenylene)bis(oxy)) bis (1-morpholinoethan-1-one)], for which the MIC in the test with MRSA ATCC 15187, in the test on MRSA ATCC 15187 (Staphylococcus aureus), in the test with S. aureus ATCC 29213, in the test on S. aureus ATCC 29213 (setting [1]), in the test with P. aeruginosa ATCC 27853 and with P. aeruginosa ATCC 27853 (setting [2]) was greater than 100 µM each time. The MIC in the test on E. coli ATCC 25922 is greater than 100 µM; with E. coli ATCC 25922 (Escherichia coli, ATCC25922), greater than 100 µM.

Turning to `CC(C)=CCc1c(O)ccc(C(=O)/C=C/c2ccc(OCC(=O)Nc3ccc(Cl)cn3)cc2)c1O` [IBC-6, (E)-N-(5-chloropyridin-2-yl)-2-(4-(3-(2,4-dihydroxy-3-(3-methylbut-2-en-1-yl)phenyl)-3-oxoprop-1-en-1-yl)phenoxy) acetamide], the MIC with MRSA ATCC 15187, with MRSA ATCC 15187 (Staphylococcus aureus), in the test with S. aureus ATCC 29213, in the test with S. aureus ATCC 29213 (setting [1]), in the test on P. aeruginosa ATCC 27853 and in the test with P. aeruginosa ATCC 27853 (setting [2]) was greater than 100 µM throughout. In addition, the MIC was greater than 100 µM in the test with E. coli ATCC 25922 and greater than 100 µM in the test on E. coli ATCC 25922 (Escherichia coli, ATCC25922).

Consider `CC(C)=CCc1c(O)ccc(C(=O)/C=C/c2ccc(OCC(=O)Nc3c(C)n(C)n(-c4ccccc4)c3=O)cc2)c1O` [IBC-7, (E)-2-(4-(3-(2,4-dihydroxy-3-(3-methylbut-2-en-1-yl)phenyl)-3-oxoprop-1-en-1-yl)phenoxy)-N-(1,5-dimethyl-3-oxo-2-phenyl-2,3-dihydro-1H-pyrazol-4-yl) acetamide], for which the MIC in the test on MRSA ATCC 15187, in the test on MRSA ATCC 15187 (Staphylococcus aureus), in the test on S. aureus ATCC 29213, with S. aureus ATCC 29213 (setting [1]), with P. aeruginosa ATCC 27853 and in the test on P. aeruginosa ATCC 27853 (setting [2]) was greater than 100 µM throughout. Moreover, the MIC was greater than 100 µM with E. coli ATCC 25922 and greater than 100 µM with E. coli ATCC 25922 (Escherichia coli, ATCC25922).

With `CC(C)=CCc1c(OCC(=O)N2CCCC2)ccc(C(=O)/C=C/c2ccc(OCC(=O)N3CCCC3)cc2)c1O` [IBC-8, (E)-1-(2-hydroxy-3-(3-methylbut-2-en-1-yl)-4-(2-oxo-2-(pyrrolidin-1-yl)ethoxy)phenyl)-3-(4-(2-oxo-2-(pyrrolidin-1-yl)ethoxy)phenyl) prop-2-en-1-one], the MIC in the test with MRSA ATCC 15187, in the test with MRSA ATCC 15187 (Staphylococcus aureus), in the test on S. aureus ATCC 29213, in the test on S. aureus ATCC 29213 (setting [1]), in the test with P. aeruginosa ATCC 27853 and with P. aeruginosa ATCC 27853 (setting [2]) was greater than 100 µM throughout. The MIC with E. coli ATCC 25922 was greater than 100 µM; in the test with E. coli ATCC 25922 (Escherichia coli, ATCC25922), greater than 100 µM.

As for `CC(C)=CCc1c(O)ccc(C(=O)/C=C/c2ccc(OCC(=O)Nc3cc(C)[nH]n3)cc2)c1O` [IBC-9, (E)-2-(4-(3-(2,4-dihydroxy-3-(3-methylbut-2-en-1-yl)phenyl)-3-oxoprop-1-en-1-yl)phenoxy)-N-(5-methyl-1H-pyrazol-3-yl)acetamide], the MIC with MRSA ATCC 15187, in the test on MRSA ATCC 15187 (Staphylococcus aureus), with S. aureus ATCC 29213, with S. aureus ATCC 29213 (setting [1]), in the test with P. aeruginosa ATCC 27853 and in the test on P. aeruginosa ATCC 27853 (setting [2]) was greater than 100 µM each time. In addition, the MIC in the test on E. coli ATCC 25922 was greater than 100 µM; with E. coli ATCC 25922 (Escherichia coli, ATCC25922), greater than 100 µM.

As to `CC(C)=CCc1c(O)ccc(C(=O)/C=C/c2ccc(OCC(=O)N3CCSCC3)cc2)c1O` [IBC-10, (E)-1-(2,4-dihydroxy-3-(3-methylbut-2-en-1-yl)phenyl)-3-(4-(2-oxo-2-thiomorpholinoethoxy)phenyl)-prop-2-en-1-one], the MIC in the test on MRSA ATCC 15187, with MRSA ATCC 15187 (Staphylococcus aureus), with S. aureus ATCC 29213, in the test with S. aureus ATCC 29213 (setting [1]), in the test on P. aeruginosa ATCC 27853 and with P. aeruginosa ATCC 27853 (setting [2]) was greater than 100 µM each time. Moreover, the MIC in the test on E. coli ATCC 25922 was greater than 100 µM; with E. coli ATCC 25922 (Escherichia coli, ATCC25922), greater than 100 µM.

Consider `NC[C@H]1O[C@H](O[C@H]2[C@H](O)[C@@H](O[C@H]3O[C@H](CO)[C@@H](O)[C@H](N)[C@H]3O)[C@H](N)C[C@@H]2N)[C@H](O)[C@@H](O)[C@@H]1O` [Kanamycin, kanamycin sulfate, reference compound], for which, in the test on P. aeruginosa ATCC 27853 (setting [2]), the MIC was found to be 2.8 µM.
